Experimental data published in patent US20260091015A1, “TREATING IRON DEFICIENCY WITH FERRIC CARBOXYMALTOSE” (PHARMACOSMOS HOLDING A/S, priority 2018, published 2026).

Assays:
[1] = cited from earlier work
ionized calcium = assay: Ionized calcium, ion-selective electrode, trials IDA-04/IDA-05; type: in vivo, human; conditions: IDA-04 and IDA-05 combined
From the text: The term “serum ionized calcium” as used herein refers to the level of calcium ions (Ca^2+) in blood serum as measured using the IL GEM Premier 3500 PAK cartridge. The central component is the sensor card, which provides a low volume, gas tight chamber in which the blood sample is presented to the sensors. The pH and electrolyte sensors are all based on the principle of ion-selective electrodes; that is, an electrical potential can be established across a membrane which is selectively permeable to a specific ion. The pH and electrolyte sensors are polyvinyl chloride (PVC) based ion selective electrodes, consisting of an internal Ag/AgCl reference electrode and internal salt layer. The potentials are measured against the card reference electrode. […]
The following safety laboratory assessments were analysed: • S-phosphate: inorganic phosphorous forms an ammonium phosphomolybdate complex having the formula (NH4)3[PO4](MoO3)12 with ammonium molybdate in the presence of sulfuric acid. The complex was determined photometrically in the ultraviolet region (340 nm) of the spectrum using the Roche Modular and Cobas Analyzer. • iFGF23 and cFGF23: the human intact FGF23 was measured by the 2nd generation Elisa kit manufactured by Immonotropics, Inc, San Clemente, CA. […] The human C-terminal FGF23 was measured by the Elisa kit manufactured by Immonotropics, Inc, San Clemente, CA. […]

human intact FGF23 = assay: Intact FGF23 (iFGF23) over time, two-site ELISA, trials IDA-04/IDA-05; type: in vivo
Description: The trial was a randomized, open-label, comparative trial. Subjects with Iron Deficiency Anaemia (IDA) were randomized 1:1 to one treatment course of one of the following treatments: • Group A: iron isomaltoside 1000 (Monofer®, Pharmacosmos, Holbok, Denmark, termed iron isomaltoside in the following), 1000 mg at baseline • Group B: ferric carboxymaltose (Ferinject®/Injectafer®, Vifor Inc, Switzerland), 750 mg at baseline and day 7, cumulative dose: 1500 mg
The secondary safety endpoints were the following: • Incidence of s-phosphate below 1.0 mg/dL at any time from baseline to day 35 • Time with hypophosphatemia (i.e. time with s-phosphate <2.0 mg/dL) from baseline to day 35 • Proportion of subjects with hypophosphatemia at day 35 • Absolute [Δ] and relative [%] changes in s-phosphate from baseline to 1, 7, 8, 14, 21, and 35 • Fractional phosphate urinary excretion at 1, 7, 8, 14, 21, and 35 • Change in iFGF23, cFGF23, vitamin D (25, 1,25, 24,25), PTH, and ionized calcium from baseline to 1, 7, 8, 14, 21, and 35 • Type and incidence of AEs • Serious or severe hypersensitivity reaction starting on or after the first dose of randomized treatment (i.e. treatment emergent). The hypersensitivity terms were defined as standardised Medical Dictionary for Regulatory Activities query (SMQ) terms. […]
The following safety laboratory assessments were analysed: • S-phosphate: inorganic phosphorous forms an ammonium phosphomolybdate complex having the formula (NH4)3[PO4](MoO3)12 with ammonium molybdate in the presence of sulfuric acid. The complex was determined photometrically in the ultraviolet region (340 nm) of the spectrum using the Roche Modular and Cobas Analyzer. • iFGF23 and cFGF23: the human intact FGF23 was measured by the 2nd generation Elisa kit manufactured by Immonotropics, Inc, San Clemente, CA. […] The human C-terminal FGF23 was measured by the Elisa kit manufactured by Immonotropics, Inc, San Clemente, CA. […] After evaporation under nitrogen, the residue was reconstituted and analyzed using Liquid Chromatography (LC) with Tandem Mass Spectrometric detection (MS/MS). […] A direct relationship exists between the amount of PTH present in the patient sample and the amount of relative light units (RLUs) detected by the system. • Ionized calcium: Measured by the IL GEM Premier 3500 PAK cartridge. […]

[2] = compared to iron dextran, iron sucrose and iron isomaltoside 1000

- ionized calcium (ionized calcium): decrease
- iFGF23 after administration (human intact FGF23; first administration (750 mg), then gradually declined over days): increased sharply
- increase in iFGF23 after second dose relative to first dose (human intact FGF23; repeated dosing one week apart): 2-3 fold
- iFGF23 on the second administration, relative to the initial level (human intact FGF23; second administration (750 mg, day 7)): several fold higher
Substance: ferric carboxymaltose [FCM]
- risk for iFGF23-mediated reduction of serum phosphate levels and development of hypophosphatemia ([1]; clinical trials and case reports, Wolf et al., 2013): highest risk
- time to minimum serum phosphorous values ([1]; clinical trials, EU SmPC): approximately 2 weeks
- prevalence of hypophosphatemia [1, 2]: higher prevalence
- reduction in serum phosphate [1, 2]: larger and longer reduction
- time until serum phosphorous returned to within the range of baseline ([1]; following treatment, clinical trials, EU SmPC): 4 to 12 weeks
- serum phosphate ([1]; women with IDA secondary to heavy uterine bleeding, Wolf et al., 2013): reduced
